Results from patent publication US20240058268A1, “METHODS OF TREATING SKIN DISORDERS” (priority 2021, published 2024).

How the values were obtained:
[1] = tested on: acne papule biopsies, Diseases or Functions Annotation; assay: Ingenuity Pathway Analysis, diseases or functions activation of the trifarotene signature; type: in vivo, human; conditions: trifarotene treated area (day 27) vs papule before treatment
Method: Functional and network analysis were generated with the Ingenuity Pathway Analysis software (QIAGEN® Inc., qiagenbioinformatics.com/products/ingenuity-pathway-analysis), and with Open Targets (opentargets.org/). IPA was used to identify canonical pathways, diseases and functions, and gene networks related to differentially expressed genes in acne lesions and post-lesional skin after treatment with trifarotene or vehicle. In addition, gene set enrichment analysis was performed with the R package FGSEA (version 1.12.0) using the hallmark and reactome gene sets. A comparative analysis was performed to identify expression patterns: For this analysis, the following comparisons were made to develop characteristic expression patterns: (a) Papule before treatment vs non-involved skin was used to derive an acne signature; (b) Resolved papule zone after treated with vehicle vs papule before treatment was used to derive signature of spontaneously resolved papule; and (c) Resolved papule zone after treatment with trifarotene vs papule before treatment to determine trifarotene treatment signature. […]

[2] = tested on: cell types in skin biopsies (macrophage subsets, B cells, melanocytes, venular cells); assay: Cell type scoring (cell-type gene signature expression scores in biopsies); type: in vivo, human
Source text: Single-Cell Analysis and Cell Marker Definition: Single-cell RNAseq data from Hughes et al. was used to determine the major cell types present in skin biopsies and the associated cell markers. Acne and normal samples from GSE150672 were downloaded and analyzed using the Seurat package. Data were normalized, scaled, and log-transformed. The most variable genes were selected based on their expression and dispersion. To reduce dimensionality, principal component analysis (PCA) was applied. The first eight principal components were used to cluster the cells using the graph-based approach FindClusters function in Seurat, with a resolution parameter of 0.4. Graphical representation of cell clusters was achieved using UMAP. A combination of known markers and differentially expressed genes was used to characterize cell clusters. Major cell type markers retained for scoring analysis included: B cells: MS4A1, CD79A; Fibroblasts: DCN, COL6A2, APOD, CFD, IGFBP5, COL1A2, COL1A1, COL3A1; Keratinocytes: KRT5, KRT1, KRT14, KRT15, S100A2, KRT6A, HOPX, KRT10, DSP; Langerhans cells: CD207; Mast cells: CPA3, IL1RL1, CTSG, TPSAB1, GATA2; Melanocytes: MLANA, MITF, PMEL, DCT; Myeloid cells: CD68, CTSS; Schwann cells: SCN7A; T cells: CD3D, TRBC2, IL7R, PTPRC, CXCR4; Venular cells: SELE, CD93, TM4SF1, A2M, RCAN1; Vascular smooth muscle cells (VSMC): TAGLN, RGS5, MYH11, ACTA2, MYL9.
Macrophage Gene Signatures: Gene markers specific to each class of macrophage were derived from the literature. For M0, M1 and M2 macrophages, the markers described in Newman et al. (Robust enumeration of cell subsets from tissue expression profiles, Nat Methods, 12:453-7, 2015) were used. For SPP1 activated macrophages, the markers from Morse et al. (Proliferating SPP1/MERTK-expressing macrophages in idiopathic pulmonary fibrosis. Eur Respir J., 54:1802441) were used. Final markers were as listed. M0 macrophage: ACP5, BHLHE41, C5AR1, CCDC102B, CCL22, CCL7, COL8A2, CSF1, CXCL3, CXCL5, CYP27A1, DCSTAMP, GPC4, HK3, IGSF6, MARCO, MMP9, NCF2, PLA2G7, PPBP, QPCT, SLAMF8, SLC12A8, TNFSF14, VNN1. M1 macrophage: ACHE, APOBEC3A, APOL3, APOL6, ARRB1, CCL19, CCL5, CCR7, CD38, CD40, CHI3L1, CXCL10, CXCL11, CXCL13, CXCL9, CYP27B1, DHX58, HESX1, IDO1, IFI44L, IL2RA, KIAA0754, KYNU, LAG3, LAMP3, LILRA3, LILRB2, NOD2, PLA1A, PTGIR, RASSF4, RSAD2, SLAMFI, SLC2A6, SOCS1, TLR7, TNFAIP6, TNIP3, TRPM4. M2 macrophage: AIF1, ALOX15, CCL13, CCL14, CCL23, CD209, CD4, CFP, CLEC10A, CLEC4A, CRYBB1, FES, FRMD4A, FZD2, GSTT1, HRH1, HTR2B, MS4A6A, NME8, NPL, P2RY13, PDCD1LG2, RENBP, WNT5B. SPP1 macrophage: MERTK, CD14, SPP1, CD68, LYZ.
Cell Type Scoring: Each cell type gene signature was used to define a cell type average gene expression in each of our clinical study samples, calculated as the average of the log 2 expression values of these markers. Boxplots were used to visualize the distribution of cell type gene expression scores between clinical groups. Statistical significance was assessed using Wilcoxon rank sum test. Graphs were generated using the ggpubr data visualization library.

Compound: CC(C)(C)c1cc(-c2cc(-c3ccc(C(=O)O)cc3)ccc2OCCO)ccc1N1CCCC1 [Trifarotene, 3″-tert-Butyl-4′-(2-hydroxy-ethoxy)-4″-pyrrolidin-1-yl-[1,1′,3′,1″ ]terphenyl-4-carboxylic acid]
- Activation z.score Trifarotene signature: Flux of Ca2+ [1]: −2.838
- venular cells ([2]; following trifarotene treatment): trend toward a decrease
- M0, M1 and M2 macrophages ([2]; spontaneously resolved vs trifarotene treated biopsies): not significantly different
- increase in melanocytes ([2]; trifarotene treated vs spontaneously resolved acne lesions): greater in the trifarotene treated samples
- B cell frequencies ([2]; trifarotene treatment vs. spontaneous resolution): greater impact in reducing B cell frequencies
- frequencies of SPP1+ macrophages ([2]; trifarotene treatment vs. spontaneously resolved acne papules, P=0.040): significantly reduced
